Data set [1] is described as follows: Solubility in AlphaMEM + 5% FBS, pH 7.4. The settings on record: culture medium (AlphaMEM + 5% FBS), pH 7.4, plasma or biological fluid.
Another data set relates to SiHa cells. Nature of the data set: IC50 assay (inhibition of proliferation, 4 h exposure, SRB). Particulars: SiHa; for IC50: Homo sapiens, 4 h. The procedure: Cells were seeded in 96-well plates (SiHa or FaDu 1500 cells/well, UT-SCC-74B 800 cells/well) in 100 μL. After incubation for 2 h, the drugs were added in 50 μL of the same titrated medium at 3× the final concentration to duplicate the wells. After a further 4 h the plates were checked for drug precipitation using a phase contrast microscope, then drugs were removed by aspirating and washing with the standard (pH 7.4) medium, then aspirating again and adding 150 μL of the medium. Cultures were then grown for 5 days before staining with sulphorhodamine B and measuring absorbance, with the estimation of IC50 values using 4-parameter logistic regression, as previously carried out.
The medium and plasticware was equilibrated in the chamber for 3 days prior to use. In the anoxia experiments, FaDu cells were plated in poly-L-lysine coated plates (Corning Cat # 356461) to improve attachment.
Cells were subsequently grown under standard cell culture conditions (oxia, pHe 7.4) for 5 days before staining with sulforhodamine B (SRB). […] (B) SN30000 (2). (C) BTO acid 4a. Values are means and errors are ranges for duplicate cultures in a single experiment. Fitted curves are 4-parameter logistic regressions. PCR = pH cytotoxicity ratio. ACR = anoxia cytotoxicity ratio. TMR = tumor microenvironment ratio.

The next data set relates to FaDu cells. The description is as above. Particulars: for IC50: Homo sapiens, 4 h. The class given is cell-based.
Where [2] appears, read: read-out: Anoxic IC50, SiHa, pHe 6.5, 4 h, anoxic.
[3] abbreviates: read-out: Anoxic IC50, SiHa, pHe 7.4, 4 h, anoxic.
The mark [4] stands for this setting: read-out: Oxic IC50, SiHa, pHe 6.5, 4 h, oxic.
[5] abbreviates: read-out: Oxic IC50, SiHa, pHe 7.4, 4 h, oxic.
Where [6] appears, read: pHe 6.5, 4 h, anoxic, read-out: Anoxic IC50.
Setting [7] is: pHe 6.5, 4 h, oxic, read-out: Oxic IC50.
Setting [8] is: pHe 7.4, 4 h, anoxic, read-out: Anoxic IC50.
Where [9] appears, read: pHe 7.4, 4 h, oxic, read-out: Oxic IC50.

Results on four compounds are retold here after PMC6680510, “Benzotriazine Di-Oxide Prodrugs for Exploiting Hypoxia and Low Extracellular pH in Tumors” (Molecules, 2019).

Like-named read-outs stand apart in the source and are kept apart here. A value given as a limit tells only on which side of the number the result lay.

For `CCOC(=O)CNc1n[n+]([O-])c2ccccc2[n+]1[O-]` [Compound 8b, Ethyl [(1,4-Dioxido-1,2,4-benzotriazin-3-yl)amino]acetate], the solubility in data set [1] (thermodynamic from solid) came to 8600 µM. Moreover, the IC50 in the data set on SiHa cells (setting [2]) came out at 2.5 ± 0.87 µM; in the data set on SiHa cells (setting [3]), 1.2 ± 0.35 µM; in the data set on SiHa cells (setting [4]), 21.6 ± 5.7 µM; in the data set on SiHa cells (setting [5]), 35.3 ± 3.1 µM; in the data set with FaDu cells (setting [6]), 8.55 ± 1.92 µM; in the data set on FaDu cells (setting [7]) it was 76.1 ± 17.9 µM. For the same compound, the IC50 was 5.25 ± 1.18 µM in the data set on FaDu cells (setting [8]) and 102 ± 9 µM in the data set on FaDu cells (setting [9]). For the same compound, the “TMR (overall TME ratio = oxic IC50 pHe 7.4/anoxic IC50 pHe 6.5)” value with SiHa cells is 14.1 ± 5.1. For the same compound, the “PCR Anoxic (IC50 at pHe 7.4/IC50 at pHe 6.5)” value (“PCR Anoxic” below) with SiHa cells was 0.48 ± 0.22; in the data set on FaDu cells (anoxic) it was 0.61 ± 0.02. In addition, the “PCR oxic (IC50 at pHe 7.4/IC50 at pHe 6.5)” value (shortened to “PCR oxic”) stood at 1.63 ± 0.45 in the data set on SiHa cells and 1.34 ± 0.33 in the data set on FaDu cells (oxic). The “ACR (anoxic cytotoxicity ratio = oxic IC50/anoxic IC50)” value in the data set with SiHa cells (pHe 6.5) turned out to be 8.6 ± 3.8; in the data set on SiHa cells (pHe 7.4), 29.4 ± 8.9. The “TMR (oxic IC50 pHe 7.4/anoxic IC50 pHe 6.5)” value with FaDu cells came to 11.2 ± 2.9. Moreover, the “ACR (oxic IC50/anoxic IC50)” value was 8.89 ± 2.89 with FaDu cells (pHe 6.5) and 19.3 ± 4.7 in the data set on FaDu cells (pHe 7.4).

Take `COC(=O)CCNc1n[n+]([O-])c2cc3c(cc2[n+]1[O-])CCC3` [Compound 10b, 3-((3-Methoxy-3-oxopropyl)amino)-7,8-dihydro-6H-indeno[5,6-e][1,2,4]triazine 1,4-Dioxide]: in data set [1] (thermodynamic from solid), the solubility was 350 µM. Besides, the IC50 with SiHa cells (setting [2]) was 21 ± 4.2 µM; in the data set on SiHa cells (setting [3]) it was 20.4 ± 4.8 µM; in the data set with SiHa cells (setting [4]) it was 208 ± 26 µM; with SiHa cells (setting [5]) it was 249 ± 50 µM; in the data set with FaDu cells (setting [6]), 40 ± 5.8 µM; with FaDu cells (setting [7]), 262 ± 29 µM. Moreover, the IC50 came to 43.7 ± 12.1 µM in the data set with FaDu cells (setting [8]) and 292 ± 8 µM in the data set on FaDu cells (setting [9]). The “TMR (overall TME ratio = oxic IC50 pHe 7.4/anoxic IC50 pHe 6.5)” value with SiHa cells turned out to be 11.9 ± 3.4. Also, the “PCR Anoxic” value in the data set with SiHa cells is reported as 0.97 ± 0.30; with FaDu cells (anoxic), 1.09 ± 0.34. Moreover, the “PCR oxic” value in the data set with SiHa cells was 1.20 ± 0.28; with FaDu cells (oxic), 1.11 ± 0.13. In addition, the “ACR (anoxic cytotoxicity ratio = oxic IC50/anoxic IC50)” value with SiHa cells (pHe 6.5) is given as 9.90 ±2.34; in the data set on SiHa cells (pHe 7.4), 12.2 ± 3.8. Further, the “TMR (oxic IC50 pHe 7.4/anoxic IC50 pHe 6.5)” value with FaDu cells turned out to be 7.31 ± 1.08. The “ACR (oxic IC50/anoxic IC50)” value was 6.56 ± 1.19 in the data set with FaDu cells (pHe 6.5) and 6.69 ± 1.86 in the data set with FaDu cells (pHe 7.4).

Take `CCOC(=O)CCCNc1n[n+]([O-])c2ccccc2[n+]1[O-]` [Compound 11b, 3-((4-Ethoxy-4-oxobutyl)amino)benzo[e][1,2,4]triazine 1,4-Dioxide]: the solubility in data set [1] (kinetic from dmso stock) amounted to 1400 µM. Besides, the IC50 came out at 4.36 ± 0.56 µM with SiHa cells (setting [2]); 3.55 ± 0.7 µM in the data set with SiHa cells (setting [3]); 13.2 ± 0.9 µM in the data set on SiHa cells (setting [4]); 14.5 ± 0.6 µM in the data set with SiHa cells (setting [5]); 36.3 ± 4.8 µM in the data set with FaDu cells (setting [6]); 274 ± 210 µM in the data set on FaDu cells (setting [7]). For the same compound, the results for the IC50 with FaDu cells (setting [8]) and with FaDu cells (setting [9]) were 29 ± 2 µM and 368 ± 98 µM, respectively. For the same compound, the “TMR (overall TME ratio = oxic IC50 pHe 7.4/anoxic IC50 pHe 6.5)” value in the data set on SiHa cells was found to be 3.32 ± 0.45. Besides, the “PCR Anoxic” value in the data set on SiHa cells was 0.81 ± 0.19; with FaDu cells (anoxic) it was 0.80 ± 0.12. The “PCR oxic” value in the data set on SiHa cells was 1.10 ± 0.09; in the data set on FaDu cells (oxic), 1.34 ± 1.09. Also, the “ACR (anoxic cytotoxicity ratio = oxic IC50/anoxic IC50)” value in the data set with SiHa cells (pHe 6.5) was 3.04 ±0.44; in the data set with SiHa cells (pHe 7.4), 4.08 ±0.82. In addition, the “TMR (oxic IC50 pHe 7.4/anoxic IC50 pHe 6.5)” value in the data set on FaDu cells worked out at 10.1 ± 3.0. Also, the “ACR (oxic IC50/anoxic IC50)” value in the data set on FaDu cells (pHe 6.5) is reported as 7.55 ± 5.87; with FaDu cells (pHe 7.4), 12.7 ± 3.5.

For `Cc1ccc2c(c1)[n+]([O-])nc(NCCCC(=O)O)[n+]2[O-]` [Compound 12a, 3-((3-Carboxypropyl)amino)-7-methylbenzo[e][1,2,4]triazine 1,4-Dioxide], the solubility in data set [1] (kinetic from dmso stock) was over 890 µM. The IC50 is 234 ± 17 µM in the data set on SiHa cells (setting [2]); over 300 µM with SiHa cells (setting [3]); over 300 µM in the data set with SiHa cells (setting [4]); over 300 µM in the data set with SiHa cells (setting [5]); 271 ± 53 µM with FaDu cells (setting [6]); over 300 µM in the data set with FaDu cells (setting [7]). For the same compound, the IC50 in the data set on FaDu cells (setting [8]) and in the data set with FaDu cells (setting [9]) was over 300 µM each time. Further, the “TMR (overall TME ratio = oxic IC50 pHe 7.4/anoxic IC50 pHe 6.5)” value in the data set with SiHa cells was over 1. The “PCR Anoxic” value in the data set on SiHa cells and in the data set on FaDu cells (anoxic) was over 1 in each case. Besides, the “ACR (anoxic cytotoxicity ratio = oxic IC50/anoxic IC50)” value in the data set with SiHa cells (pHe 6.5) was over 1. The “TMR (oxic IC50 pHe 7.4/anoxic IC50 pHe 6.5)” value in the data set on FaDu cells is recorded as over 1. In addition, the “ACR (oxic IC50/anoxic IC50)” value with FaDu cells (pHe 6.5) is over 1.
